Test results published in US5733924A, “DC 107 derivatives and treatment methods” (Kyowa Hakko Kogyo Co., Ltd., priority 1995, dated 1998).
Read-outs that look alike come from different tables or passages of the source.

Tested on: P388 Leukemia
Assay: Antitumor activity against P388 leukemia in mice (increased life span)
Type: in vivo, CDF1 mice
Details: Mus musculus, P388, ip, 720 h; for ILS at 8 mg/kg / ILS at 2 mg/kg / ILS at 1 mg/kg / ILS at 4 mg/kg: read-out: ILS (increased life span)
Protocol: Ascites were collected from the abdominal cavity of P388 ascites tumor-bearing cancer mice (DBA/2) on the 7th day after transplantation. A number of P388 cells in the ascites was counted, and a tumor cell floating liquid of 5×10^6 cells/ml was prepared using a physiological saline solution. Then, 0.2 ml of the solution containing 1×10^6 cells was transplanted into the abdominal cavity of CDF1 mice having a body weight of from 20 to 25 g.
The effect of the test compound was determined in terms of the ratio of average survival days of the group administered with the test compound to average survival days of the control group (non-medicated group) (i.e., an increased life span, ILS%).

[1] = single i.p. 24 hours after transplantation, CDF1 mice, 30 days observation
[2] = 8.0 mg/kg, single i.p. 24 hours after transplantation, CDF1 mice, 30 days observation
[3] = 2.0 mg/kg, single i.p. 24 hours after transplantation, CDF1 mice, 30 days observation
[4] = 4.0 mg/kg, single i.p. 24 hours after transplantation, CDF1 mice, 30 days observation
[5] = 1.0 mg/kg, single i.p. 24 hours after transplantation, CDF1 mice, 30 days observation

With `CC1=CC(OC2CCCCO2)C(=NO)C=CC=Cc2csc(n2)C(C)N2C(=O)CC(C(C)(O)C(=O)SCc3oc(=O)oc3C)(CC1)[S+]2[O-]` (centres unmarked) [Compound 125] the ILS at 16 mg/kg [1] was 54%.

With `CC1=CC(OC(=O)CNC=O)C(=O)C=CC=Cc2csc(n2)C(C)N2C(=O)CC(C(C)(O)C(=O)SCc3oc(=O)oc3C)(CC1)[S+]2[O-]` (centres unmarked) [Compound 159] the ILS at 8 mg/kg [2] was 50%.

`CC1=CC(OC(=O)CO)C(=O)C=CC=Cc2csc(n2)C(C)N2C(=O)CC(C(C)(O)C(=O)SCc3oc(=O)oc3C)(CC1)[S+]2[O-]` (centres unmarked) [Compound 154] was tested, and the ILS at 2 mg/kg [3] was 48%.

`C/C1=C\C(OC(=O)CNC(=O)C(CC(C)C)NC(=O)OCc2ccccc2)C(=O)/C=C/C=C\c2csc(n2)C(C)NC(=O)CC2(CC1)[S+]([O-])SC(=O)C2(C)O` (centres unmarked) [Compound 115] gave an ILS at 8 mg/kg [2] of 67%.

Work on `COC1(OC2C=C(C)CCC3(C(C)(O)C(=O)SCc4oc(=O)oc4C)CC(=O)N(C(C)c4nc(cs4)C=CC=CC2=O)[S+]3[O-])CCN(c2ccccc2)CC1` (centres unmarked) [Compound 131] yielded an ILS at 8 mg/kg [2] of 60%.

Work on `C/C1=C\C(OC(=O)OCC(C)C)C(=O)/C=C/C=C\c2csc(n2)C(C)NC(=O)CC2(CC1)[S+]([O-])SC(=O)C2(C)O` (centres unmarked) [Compound 11] yielded an ILS at 2 mg/kg [3] of 50%.

For `CC1=CC(OC(=O)Cc2cccnc2)C(=O)C=CC=Cc2csc(n2)C(C)N2C(=O)CC(C(C)(O)C(=O)SCc3oc(=O)oc3C)(CC1)[S+]2[O-]` (centres unmarked) [Compound 147], the ILS at 2 mg/kg [3] was 60%.

Work on `C/C1=C\C(OC(=O)CNC(=O)CCNC(=O)OC(C)(C)C)C(=O)/C=C/C=C\c2csc(n2)C(C)NC(=O)CC2(CC1)[S+]([O-])SC(=O)C2(C)O` (centres unmarked) [Compound 112] yielded an ILS at 8 mg/kg [2] of 67%.

For `C/C1=C\C(OC(=O)Oc2ccccc2)C(=O)/C=C/C=C\c2csc(n2)C(C)N2C(=O)CC(C(C)(O)C(=O)SCc3oc(=O)oc3C)(CC1)[S+]2[O-]` (centres unmarked) [Compound 55], the ILS at 1 mg/kg was 40%.

`C/C1=C\C(O)C(=NOCc2ccccc2)/C=C/C=C\c2csc(n2)C(C)N2C(=O)CC(C(C)(O)C(=O)SCc3oc(=O)oc3C)(CC1)[S+]2[O-]` (single isomer, unassigned) [Compound 73] showed an ILS at 4 mg/kg of 43%.

`C/C1=C\C(OC(=O)c2cnc3ccccc3n2)C(=O)/C=C/C=C\c2csc(n2)C(C)NC(=O)CC2(CC1)[S+]([O-])SC(=O)C2(C)O` (centres unmarked) [Compound 9] gave an ILS at 2 mg/kg [3] of 44%.

Molecule `C/C1=C\C(OC(=O)C2CCCCC2)C(=O)/C=C/C=C\c2csc(n2)C(C)N2C(=O)CC(C(C)(O)C(=O)SCc3oc(=O)oc3C)(CC1)[S+]2[O-]` (centres unmarked) [Compound 48] has an ILS at 8 mg/kg of 47%.

`CC1=CC(OC(=O)CCNC(=O)CNC(=O)OCc2ccccc2)C(=O)C=CC=Cc2csc(n2)C(C)N2C(=O)CC(C(C)(O)C(=O)SCc3oc(=O)oc3C)(CC1)[S+]2[O-]` (centres unmarked) [Compound 176] showed an ILS at 16 mg/kg [1] of 75%.

In the case of `C/C1=C\C(OC(=O)OCC2c3ccccc3-c3ccccc32)C(=O)/C=C/C=C\c2csc(n2)C(C)N2C(=O)CC(C(C)(O)C(=O)SCc3oc(=O)oc3C)(CC1)[S+]2[O-]` (centres unmarked) [Compound 57], the ILS at 4 mg/kg is reported as 53%.

With `C/C1=C\C(OC(=O)CN(C)C(=O)OCc2ccccc2)C(=O)/C=C/C=C\c2csc(n2)C(C)NC(=O)CC2(CC1)[S+]([O-])SC(=O)C2(C)O` (centres unmarked) [Compound 101] the ILS at 4 mg/kg [4] was 48%.

For `CC1=CC(OC(=O)CN(C)C(=O)OCc2ccccc2)C(=O)C=CC=Cc2csc(n2)C(C)N2C(=O)CC(C(C)(O)C(=O)SCc3oc(=O)oc3C)(CC1)[S+]2[O-]` (centres unmarked) [Compound 162], the ILS at 8 mg/kg [2] was 57%.

`COC1(OC2/C=C(\C)CCC3(CC(=O)NC(C)c4nc(cs4)/C=C\C=C\C2=O)[S+]([O-])SC(=O)C3(C)O)CCCCC1` (centres unmarked) [Compound 91] showed an ILS at 8 mg/kg [2] of 48%.

`CC(=O)NCC(=O)OC1C=C(C)CCC2(C(C)(O)C(=O)SCc3oc(=O)oc3C)CC(=O)N(C(C)c3nc(cs3)C=CC=CC1=O)[S+]2[O-]` (centres unmarked) [Compound 160] showed an ILS at 4 mg/kg [4] of 62%.

Work on `C/C1=C\C(OC(=O)CCNC(=O)CNC(=O)OCc2ccccc2)C(=O)/C=C/C=C\c2csc(n2)C(C)NC(=O)CC2(CC1)[S+]([O-])SC(=O)C2(C)O` (centres unmarked) [Compound 118] yielded an ILS at 16 mg/kg [1] of 71%.

For `C/C1=C\C(O)C(=O)/C=C/C=C\c2csc(n2)C(C)N2C(=O)CC(C(C)(O)C(=O)SCOC(=O)C(C)(C)C)(CC1)[S+]2[O-]` (centres unmarked) [Compound 34], the ILS at 2 mg/kg was 48%.

Molecule `CC1=CC(OC(=O)C2CCC(=O)N2)C(=O)C=CC=Cc2csc(n2)C(C)N2C(=O)CC(C(C)(O)C(=O)SCc3oc(=O)oc3C)(CC1)[S+]2[O-]` (centres unmarked) [Compound 149] has an ILS at 4 mg/kg [4] of 55%.

`CC1=CC(OC(=O)CNC(=O)CCNC(=O)OCc2ccccc2)C(=O)C=CC=Cc2csc(n2)C(C)N2C(=O)CC(C(C)(O)C(=O)SCc3oc(=O)oc3C)(CC1)[S+]2[O-]` (centres unmarked) [Compound 169] gave an ILS at 16 mg/kg [1] of 91%.

In the case of `C/C1=C\C(OC(=O)CNC(=O)CCCNC(=O)OCc2ccccc2)C(=O)/C=C/C=C\c2csc(n2)C(C)NC(=O)CC2(CC1)[S+]([O-])SC(=O)C2(C)O` (centres unmarked) [Compound 113], the ILS at 16 mg/kg [1] is reported as 58%.

Work on `CC1=CC(OC(=O)CNC(=O)C(CC(C)C)NC(=O)OCc2ccccc2)C(=O)C=CC=Cc2csc(n2)C(C)N2C(=O)CC(C(C)(O)C(=O)SCc3oc(=O)oc3C)(CC1)[S+]2[O-]` (centres unmarked) [Compound 173] yielded an ILS at 8 mg/kg [2] of 64%.

Molecule `COC1(OC2C=C(C)CCC3(C(C)(O)C(=O)SCc4oc(=O)oc4C)CC(=O)N(C(C)c4nc(cs4)C=CC=CC2=O)[S+]3[O-])CCS(=O)(=O)CC1` (centres unmarked) [Compound 129] has an ILS at 1 mg/kg [5] of 64%.

For `CCOC(=O)OC1/C=C(\C)CCC2(C(C)(O)C(=O)SCOC(=O)C(C)(C)C)CC(=O)N(C(C)c3nc(cs3)/C=C\C=C\C1=O)[S+]2[O-]` (centres unmarked) [Compound 41], the ILS at 2 mg/kg [3] was 40%.

`C/C1=C\C(OC(=O)CCNC(=O)CCNC(=O)OCc2ccccc2)C(=O)/C=C/C=C\c2csc(n2)C(C)NC(=O)CC2(CC1)[S+]([O-])SC(=O)C2(C)O` (centres unmarked) [Compound 119] gave an ILS at 16 mg/kg [1] of 63%.

`CC1=CC(OC(=O)[C@@H]2CCCN2C(=O)OC(C)(C)C)C(=O)C=CC=Cc2csc(n2)C(C)N2C(=O)CC(C(C)(O)C(=O)SCc3oc(=O)oc3C)(CC1)[S+]2[O-]` (some centres unmarked) [Compound 148] was tested, and the ILS at 8 mg/kg [2] was 49%.

Work on `CC1=CC(OC(=O)CNC(=O)CNC(=O)OCc2ccccc2)C(=O)C=CC=Cc2csc(n2)C(C)N2C(=O)CC(C(C)(O)C(=O)SCc3oc(=O)oc3C)(CC1)[S+]2[O-]` (centres unmarked) [Compound 166] yielded an ILS at 8 mg/kg [2] of 64%.

With `CC1=CC(OC(=O)CCNC(=O)CCNC(=O)OCc2ccccc2)C(=O)C=CC=Cc2csc(n2)C(C)N2C(=O)CC(C(C)(O)C(=O)SCc3oc(=O)oc3C)(CC1)[S+]2[O-]` (centres unmarked) [Compound 177] the ILS at 32 mg/kg (32 mg/kg, single i.p. 24 hours after transplantation, CDF1 mice, 30 days observation) was 52%.

`COC1(OC2C=C(C)CCC3(C(C)(O)C(=O)SCc4oc(=O)oc4C)CC(=O)N(C(C)c4nc(cs4)C=CC=CC2=O)[S+]3[O-])CC[S+]([O-])CC1` (centres unmarked) [Compound 128] was tested, and the ILS at 4 mg/kg was 84%.

Molecule `C/C1=C\C(OC(=O)CNC(=O)[C@H](C)NC(=O)OCc2ccccc2)C(=O)/C=C/C=C\c2csc(n2)C(C)NC(=O)CC2(CC1)[S+]([O-])SC(=O)C2(C)O` (some centres unmarked) [Compound 110] has an ILS at 8 mg/kg [2] of 58%.

Molecule `CC1=CC(OC(=O)CNC(=O)OCc2ccccc2)C(=O)C=CC=Cc2csc(n2)C(C)N2C(=O)CC(C(C)(O)C(=O)SCc3oc(=O)oc3C)(CC1)[S+]2[O-]` (centres unmarked) [Compound 157] has an ILS at 8 mg/kg [2] of 98%.

`CC1=CC(OC(=O)[C@H](C)NC(=O)OCc2ccccc2)C(=O)C=CC=Cc2csc(n2)C(C)N2C(=O)CC(C(C)(O)C(=O)SCc3oc(=O)oc3C)(CC1)[S+]2[O-]` (some centres unmarked) [Compound 163] gave an ILS at 2 mg/kg of 46%.

In the case of `CC1=CC(OC(=O)CNC(=O)[C@H](C)NC(=O)OCc2ccccc2)C(=O)C=CC=Cc2csc(n2)C(C)N2C(=O)CC(C(C)(O)C(=O)SCc3oc(=O)oc3C)(CC1)[S+]2[O-]` (some centres unmarked) [Compound 168], the ILS at 4 mg/kg [4] is reported as 58%.

`CC1=CC(OC(=O)c2cccnc2)C(=O)C=CC=Cc2csc(n2)C(C)N2C(=O)CC(C(C)(O)C(=O)SCc3oc(=O)oc3C)(CC1)[S+]2[O-]` (centres unmarked) [Compound 144] was tested, and the ILS at 2 mg/kg [3] was 49%.

Work on `C/C1=C\C(O)C(=O)/C=C/C=C\c2csc(n2)C(C)N2C(=O)CC(C(C)(O)C(=O)SCc3oc(=O)oc3C)(CC1)[S+]2[O-]` (centres unmarked) [Compound 35] yielded an ILS at 2 mg/kg of 65%.

With `CC1=CC(OC(=O)CN(C)C(=O)OC(C)(C)C)C(=O)C=CC=Cc2csc(n2)C(C)N2C(=O)CC(C(C)(O)C(=O)SCc3oc(=O)oc3C)(CC1)[S+]2[O-]` (centres unmarked) [Compound 161] the ILS at 4 mg/kg [4] was 65%.

In the case of `C/C1=C\C(OC(=O)CCNC(=O)OCc2ccccc2)C(=O)/C=C/C=C\c2csc(n2)C(C)NC(=O)CC2(CC1)[S+]([O-])SC(=O)C2(C)O` (centres unmarked) [Compound 105], the ILS at 4 mg/kg [4] is reported as 53%.

`C/C1=C\C(OC(=O)OCc2ccccc2)C(=O)/C=C/C=C\c2csc(n2)C(C)N2C(=O)CC(C(C)(O)C(=O)SCc3oc(=O)oc3C)(CC1)[S+]2[O-]` (centres unmarked) [Compound 56] showed an ILS at 1 mg/kg of 63%.

With `C/C1=C\C(OC(=O)OCc2ccccc2)C(=O)/C=C/C=C\c2csc(n2)C(C)NC(=O)CC2(CC1)[S+]([O-])SC(=O)C2(C)O` (centres unmarked) [Compound 14] the ILS at 1 mg/kg [5] was 42%.

Molecule `CC1=CC(OC(=O)CNC(=O)CCCNC(=O)OCc2ccccc2)C(=O)C=CC=Cc2csc(n2)C(C)N2C(=O)CC(C(C)(O)C(=O)SCc3oc(=O)oc3C)(CC1)[S+]2[O-]` (centres unmarked) [Compound 171] has an ILS at 16 mg/kg [1] of 63%.

Work on `C/C1=C\C(OC(=O)Oc2ccccc2)C(=O)/C=C/C=C\c2csc(n2)C(C)NC(=O)CC2(CC1)[S+]([O-])SC(=O)C2(C)O` (centres unmarked) [Compound 12] yielded an ILS at 1 mg/kg [5] of 44%.

`C/C1=C\C(OC(=O)CNC(=O)OC(C)(C)C)C(=O)/C=C/C=C\c2csc(n2)C(C)NC(=O)CC2(CC1)[S+]([O-])SC(=O)C2(C)O` (centres unmarked) [Compound 96] was tested, and the ILS at 2 mg/kg [3] was 46%.
